ChEMBL document CHEMBL1201862, “PubChem BioAssay data set” (2004)
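Method: 48-hour compound exposure of cells in 96-well plates, five concentrations, linear interpolation of endpoints. GI50 = concentration required for 50% inhibition of growth.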 Active and inactive are the calls of the source. Cut-off read from the data, not from the text of the source: active = GI50 up to about 1.1 µM and inactive = higher.

Key:
Assay in all cases: NCI tumour cell line growth inhibition, 48 h
SF-268 = system: SF-268
NCI-H460 = system: NCI-H460
SF-295 = system: SF-295
SF-539 = system: SF-539
NCI-H226 = system: NCI-H226
CCRF-CEM = system: CCRF-CEM
COLO 205 = system: COLO 205
OVCAR-8 = system: OVCAR-8
HT-29 = system: HT-29
SN12C = system: SN12C
RPMI-8226 = system: RPMI-8226
NCI-H23 = system: NCI-H23
LOX IMVI = system: LOX IMVI
T47D = system: T47D
A549 = system: A549
SK-MEL-5 = system: SK-MEL-5
HCT-15 = system: HCT-15
786-0 = system: 786-0
SW-620 = system: SW-620
PC-3 = system: PC-3
U-251 = system: U-251
KM12 = system: KM12
MOLT-4 = system: MOLT-4
OVCAR-3 = system: OVCAR-3
SR = system: SR
IGROV-1 = system: IGROV-1
UACC-257 = system: UACC-257
SNB-75 = system: SNB-75
MDA-MB-435 = system: MDA-MB-435
UO-31 = system: UO-31
MCF7 = system: MCF7
NCI/ADR-RES = system: NCI/ADR-RES
MDA-MB-231 = system: MDA-MB-231
HCT-116 = system: HCT-116
HL-60 = system: HL-60
RXF 393 = system: RXF 393
Malme-3M = system: Malme-3M
SK-MEL-2 = system: SK-MEL-2
ACHN = system: ACHN
OVCAR-4 = system: OVCAR-4
CAKI-1 = system: CAKI-1
SNB-19 = system: SNB-19
HCC 2998 = system: HCC 2998
HOP-92 = system: HOP-92
MDA-N = system: MDA-N
TK-10 = system: TK-10
SK-MEL-28 = system: SK-MEL-28
HOP-62 = system: HOP-62
SK-OV-3 = system: SK-OV-3
DU-145 = system: DU-145
OVCAR-5 = system: OVCAR-5
K562 = system: K562
EKVX = system: EKVX
Hs-578T = system: Hs-578T
M14 = system: M14
UACC-62 = system: UACC-62

`CC1(C)C(C#N)=[N+]([O-])C(C)(C)N1O` was tested, and the GI50 (SF-268) was > 100 µM (inactive), the GI50 (NCI-H460) was > 100 µM (inactive) and the GI50 (SF-295) was > 100 µM (inactive). For the same molecule, the GI50 (SF-539) was > 100 µM (inactive), the GI50 (NCI-H226) was > 100 µM (inactive) and the GI50 (CCRF-CEM) was 33.5 µM (inactive). The GI50 (COLO 205) was > 100 µM (inactive), the GI50 (OVCAR-8) was > 100 µM (inactive) and the GI50 (HT-29) was > 100 µM (inactive). For the same molecule, the GI50 (SN12C) was > 100 µM (inactive), the GI50 (RPMI-8226) was > 100 µM (inactive) and the GI50 (NCI-H23) was > 100 µM (inactive). The GI50 (LOX IMVI) was 77.3 µM (inactive), the GI50 (T47D) was > 100 µM (inactive) and the GI50 (A549) was > 100 µM (inactive). For the same molecule, the GI50 (SK-MEL-5) was 34.6 µM (inactive), the GI50 (HCT-15) was over 100 µM and the GI50 (786-0) was > 100 µM (inactive). For the same molecule, the GI50 (SW-620) was 72.3 µM (inactive), the GI50 (PC-3) was > 100 µM (inactive) and the GI50 (U-251) was > 100 µM (inactive). For the same molecule, the GI50 (KM12) was > 100 µM (inactive), the GI50 (MOLT-4) was 35.5 µM (inactive) and the GI50 (OVCAR-3) was > 100 µM (inactive). For the same molecule, the GI50 (SR) was > 100 µM (inactive), the GI50 (IGROV-1) was > 100 µM (inactive) and the GI50 (UACC-257) was > 100 µM (inactive). The GI50 (SNB-75) was > 100 µM (inactive), the GI50 (MDA-MB-435) was 37.7 µM (inactive) and the GI50 (UO-31) was > 100 µM (inactive). For the same molecule, the GI50 (MCF7) was 79.4 µM (inactive), the GI50 (NCI/ADR-RES) was > 100 µM (inactive) and the GI50 (MDA-MB-231) was > 100 µM (inactive). The GI50 (HCT-116) was > 100 µM (inactive), the GI50 (HL-60) was 26.7 µM (inactive) and the GI50 (RXF 393) was > 100 µM (inactive). The GI50 (Malme-3M) was > 100 µM (inactive), the GI50 (SK-MEL-2) was > 100 µM (inactive) and the GI50 (ACHN) was > 100 µM (inactive). The GI50 (OVCAR-4) was > 100 µM (inactive), the GI50 (CAKI-1) was > 100 µM (inactive) and the GI50 (SNB-19) was > 100 µM (inactive). For the same molecule, the GI50 (HCC 2998) was > 100 µM (inactive), the GI50 (HOP-92) was > 100 µM (inactive) and the GI50 (MDA-N) was 65.8 µM (inactive). For the same molecule, the GI50 (TK-10) was > 100 µM (inactive), the GI50 (SK-MEL-28) was > 100 µM (inactive) and the GI50 (HOP-62) was > 100 µM (inactive). For the same molecule, the GI50 (SK-OV-3) was > 100 µM (inactive), the GI50 (DU-145) was > 100 µM (inactive) and the GI50 (OVCAR-5) was > 100 µM (inactive). For the same molecule, the GI50 (K562) was > 100 µM (inactive), the GI50 (EKVX) was > 100 µM (inactive) and the GI50 (Hs-578T) was > 100 µM (inactive). For the same molecule, the GI50 (M14) was > 100 µM (inactive) and the GI50 (UACC-62) was > 100 µM (inactive).

`Nc1ncnc2c1ncn2C1CCC(COS(N)(=O)=O)C1` (configuration not stated) was tested, and the GI50 (SF-268) was > 100 µM (inactive), the GI50 (NCI-H460) was > 100 µM (inactive) and the GI50 (SF-295) was > 100 µM (inactive). The GI50 (SF-539) was 27 µM (inactive), the GI50 (NCI-H226) was > 100 µM (inactive) and the GI50 (CCRF-CEM) was > 100 µM (inactive). For the same molecule, the GI50 (COLO 205) was > 100 µM (inactive), the GI50 (OVCAR-8) was > 100 µM (inactive) and the GI50 (HT-29) was > 100 µM (inactive). For the same molecule, the GI50 (SN12C) was > 100 µM (inactive), the GI50 (RPMI-8226) was > 100 µM (inactive) and the GI50 (NCI-H23) was > 100 µM (inactive). For the same molecule, the GI50 (LOX IMVI) was 37 µM (inactive), the GI50 (T47D) was 93.5 µM (inactive) and the GI50 (A549) was > 100 µM (inactive). For the same molecule, the GI50 (SK-MEL-5) was > 100 µM (inactive), the GI50 (HCT-15) was over 100 µM and the GI50 (786-0) was > 100 µM (inactive). The GI50 (SW-620) was > 100 µM (inactive), the GI50 (PC-3) was > 100 µM (inactive) and the GI50 (U-251) was > 100 µM (inactive). The GI50 (KM12) was > 100 µM (inactive), the GI50 (MOLT-4) was 46.9 µM (inactive) and the GI50 (OVCAR-3) was 80.7 µM (inactive). For the same molecule, the GI50 (SR) was 56.4 µM (inactive), the GI50 (IGROV-1) was > 100 µM (inactive) and the GI50 (UACC-257) was > 100 µM (inactive). The GI50 (SNB-75) was 89.5 µM (inactive), the GI50 (MDA-MB-435) was > 100 µM (inactive) and the GI50 (UO-31) was > 100 µM (inactive). For the same molecule, the GI50 (MCF7) was 58.7 µM (inactive), the GI50 (NCI/ADR-RES) was > 100 µM (inactive) and the GI50 (MDA-MB-231) was > 100 µM (inactive). The GI50 (HCT-116) was 57.5 µM (inactive), the GI50 (HL-60) was 31.1 µM (inactive) and the GI50 (RXF 393) was > 100 µM (inactive). For the same molecule, the GI50 (Malme-3M) was > 100 µM (inactive), the GI50 (SK-MEL-2) was > 100 µM (inactive) and the GI50 (ACHN) was > 100 µM (inactive). The GI50 (OVCAR-4) was > 100 µM (inactive), the GI50 (CAKI-1) was > 100 µM (inactive) and the GI50 (SNB-19) was > 100 µM (inactive). For the same molecule, the GI50 (HCC 2998) was > 100 µM (inactive), the GI50 (HOP-92) was > 100 µM (inactive) and the GI50 (MDA-N) was > 100 µM (inactive). The GI50 (TK-10) was > 100 µM (inactive), the GI50 (SK-MEL-28) was > 100 µM (inactive) and the GI50 (HOP-62) was > 100 µM (inactive). The GI50 (SK-OV-3) was > 100 µM (inactive), the GI50 (DU-145) was > 100 µM (inactive) and the GI50 (OVCAR-5) was > 100 µM (inactive). The GI50 (K562) was > 100 µM (inactive), the GI50 (EKVX) was > 100 µM (inactive) and the GI50 (Hs-578T) was 65.5 µM (inactive). The GI50 (M14) was > 100 µM (inactive) and the GI50 (UACC-62) was > 100 µM (inactive).
